Data as given in ChEMBL document CHEMBL5236672, “Discovery of indole-piperazine derivatives as selective histone deacetylase 6 inhibitors with neurite outgrowth-promoting activities and neuroprotective activities” (Bioorg Med Chem Lett, 2023).
pIC50: −log10 of the molar value.

Tests used:
[1] = system: PC-12; experiment: Neuroprotective activity in rat PC-12 cells assessed as increase in NGF-mediated neurite outgrowth at 3 uM incubated for 48 hrs by phase contrast microscopic analysis; assay type: functional
[2] = target: T1, Protein deacetylase HDAC6 (Homo sapiens, UniProt Q9UBN7); experiment: Inhibition of HDAC6 (unknown origin) using fluorogenic peptide RHKKAc-AMC as substrate by fluorescence-based assay
T1 sequence (Q9UBN7 whole entry): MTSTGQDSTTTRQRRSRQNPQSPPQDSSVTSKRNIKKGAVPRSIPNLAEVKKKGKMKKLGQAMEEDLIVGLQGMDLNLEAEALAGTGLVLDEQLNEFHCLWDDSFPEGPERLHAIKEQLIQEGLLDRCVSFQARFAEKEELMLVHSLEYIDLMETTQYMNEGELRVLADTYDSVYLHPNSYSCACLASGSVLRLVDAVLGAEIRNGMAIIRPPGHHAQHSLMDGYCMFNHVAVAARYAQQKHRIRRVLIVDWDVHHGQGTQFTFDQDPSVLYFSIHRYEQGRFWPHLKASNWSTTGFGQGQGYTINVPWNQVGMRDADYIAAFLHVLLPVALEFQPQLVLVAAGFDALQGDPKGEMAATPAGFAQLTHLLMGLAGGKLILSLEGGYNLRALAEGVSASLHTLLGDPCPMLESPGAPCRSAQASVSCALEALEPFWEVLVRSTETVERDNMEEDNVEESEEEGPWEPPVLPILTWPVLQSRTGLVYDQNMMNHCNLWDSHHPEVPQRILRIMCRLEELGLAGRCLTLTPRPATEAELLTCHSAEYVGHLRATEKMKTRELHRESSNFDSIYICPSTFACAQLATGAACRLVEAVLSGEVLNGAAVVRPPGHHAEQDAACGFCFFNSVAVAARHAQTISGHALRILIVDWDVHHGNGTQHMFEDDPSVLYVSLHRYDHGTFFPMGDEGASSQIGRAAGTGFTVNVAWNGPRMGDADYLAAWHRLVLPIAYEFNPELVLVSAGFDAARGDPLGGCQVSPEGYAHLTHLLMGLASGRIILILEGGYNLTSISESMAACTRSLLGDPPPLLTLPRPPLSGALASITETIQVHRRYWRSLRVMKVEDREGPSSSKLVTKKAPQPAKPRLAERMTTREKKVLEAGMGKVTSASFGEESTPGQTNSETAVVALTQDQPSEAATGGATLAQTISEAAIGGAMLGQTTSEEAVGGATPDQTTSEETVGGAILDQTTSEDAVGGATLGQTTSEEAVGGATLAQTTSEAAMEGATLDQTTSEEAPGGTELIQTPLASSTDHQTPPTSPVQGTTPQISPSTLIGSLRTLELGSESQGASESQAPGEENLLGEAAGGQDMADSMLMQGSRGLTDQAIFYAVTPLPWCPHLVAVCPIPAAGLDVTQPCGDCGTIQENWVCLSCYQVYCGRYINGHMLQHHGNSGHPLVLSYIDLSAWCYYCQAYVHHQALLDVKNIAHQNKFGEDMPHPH

[3] = target: Histone deacetylase 1 (Homo sapiens, UniProt Q13547); experiment: Inhibition of HDAC1 (unknown origin) using fluorogenic peptide RHKKAc-AMC as substrate by fluorescence-based assay
Sequence of Histone deacetylase 1 (Q13547 whole entry): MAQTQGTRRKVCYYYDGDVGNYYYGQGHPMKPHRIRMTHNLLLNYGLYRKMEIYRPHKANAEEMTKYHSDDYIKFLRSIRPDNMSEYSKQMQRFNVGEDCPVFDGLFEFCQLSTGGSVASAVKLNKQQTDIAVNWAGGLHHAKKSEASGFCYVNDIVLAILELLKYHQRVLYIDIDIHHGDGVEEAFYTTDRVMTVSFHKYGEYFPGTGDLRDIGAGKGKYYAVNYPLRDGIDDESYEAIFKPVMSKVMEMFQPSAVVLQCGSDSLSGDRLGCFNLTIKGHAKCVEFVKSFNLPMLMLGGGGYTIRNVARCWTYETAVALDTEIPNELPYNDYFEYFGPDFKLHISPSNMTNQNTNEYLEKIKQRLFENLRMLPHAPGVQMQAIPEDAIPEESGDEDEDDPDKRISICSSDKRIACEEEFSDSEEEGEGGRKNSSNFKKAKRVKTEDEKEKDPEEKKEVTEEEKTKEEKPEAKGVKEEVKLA

[4] = species on record: Homo sapiens; experiment: Selectivity index, ratio of IC50 for inhibition of HDAC1 (unknown origin) to IC50 for inhibition of HDAC6 (unknown origin)
[5] = system: PC-12; experiment: Neuroprotective activity in rat PC-12 cells assessed as increase in NGF-mediated neurite outgrowth at 1 to 10 uM incubated for 48 hrs by phase contrast microscopic analysis; assay type: functional, cell-based; conditions: dose 1-10 µM
[6] = system: PC-12; experiment: Neuroprotective activity against H202-induced oxidative damage in rat PC-12 cells assessed as increase in cell viability at 1 to 10 uM; assay type: functional, cell-based; conditions: dose 1-10 µM
[7] = system: PC-12; experiment: Cytotoxicity against rat PC-12 cells assessed as reduction in cell viability at 10 uM; assay type: toxicity, cell-based; conditions: pc-12, 10 µM
[8] = target: Histone deacetylase 3 (Homo sapiens, UniProt O15379); experiment: Inhibition of HDAC3 (unknown origin) using fluorogenic peptide RHKKAc-AMC as substrate by fluorescence-based assay
Sequence of Histone deacetylase 3 (O15379 whole entry): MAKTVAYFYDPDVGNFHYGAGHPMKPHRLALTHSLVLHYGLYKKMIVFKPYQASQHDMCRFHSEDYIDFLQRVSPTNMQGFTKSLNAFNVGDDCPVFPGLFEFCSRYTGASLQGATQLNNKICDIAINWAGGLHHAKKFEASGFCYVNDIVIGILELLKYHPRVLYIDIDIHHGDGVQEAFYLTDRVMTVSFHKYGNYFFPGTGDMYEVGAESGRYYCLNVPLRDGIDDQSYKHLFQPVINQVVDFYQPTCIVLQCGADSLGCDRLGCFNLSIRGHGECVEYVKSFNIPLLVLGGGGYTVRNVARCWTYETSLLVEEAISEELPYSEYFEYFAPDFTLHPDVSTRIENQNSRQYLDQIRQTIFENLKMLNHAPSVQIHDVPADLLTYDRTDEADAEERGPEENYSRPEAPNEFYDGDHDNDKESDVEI

[9] = target: Histone deacetylase 5 (Homo sapiens, UniProt Q9UQL6); experiment: Inhibition of HDAC5 (unknown origin) using trifluoroacetyl lysine as substrate by fluorescence-based assay
Sequence of Histone deacetylase 5 (Q9UQL6 whole entry): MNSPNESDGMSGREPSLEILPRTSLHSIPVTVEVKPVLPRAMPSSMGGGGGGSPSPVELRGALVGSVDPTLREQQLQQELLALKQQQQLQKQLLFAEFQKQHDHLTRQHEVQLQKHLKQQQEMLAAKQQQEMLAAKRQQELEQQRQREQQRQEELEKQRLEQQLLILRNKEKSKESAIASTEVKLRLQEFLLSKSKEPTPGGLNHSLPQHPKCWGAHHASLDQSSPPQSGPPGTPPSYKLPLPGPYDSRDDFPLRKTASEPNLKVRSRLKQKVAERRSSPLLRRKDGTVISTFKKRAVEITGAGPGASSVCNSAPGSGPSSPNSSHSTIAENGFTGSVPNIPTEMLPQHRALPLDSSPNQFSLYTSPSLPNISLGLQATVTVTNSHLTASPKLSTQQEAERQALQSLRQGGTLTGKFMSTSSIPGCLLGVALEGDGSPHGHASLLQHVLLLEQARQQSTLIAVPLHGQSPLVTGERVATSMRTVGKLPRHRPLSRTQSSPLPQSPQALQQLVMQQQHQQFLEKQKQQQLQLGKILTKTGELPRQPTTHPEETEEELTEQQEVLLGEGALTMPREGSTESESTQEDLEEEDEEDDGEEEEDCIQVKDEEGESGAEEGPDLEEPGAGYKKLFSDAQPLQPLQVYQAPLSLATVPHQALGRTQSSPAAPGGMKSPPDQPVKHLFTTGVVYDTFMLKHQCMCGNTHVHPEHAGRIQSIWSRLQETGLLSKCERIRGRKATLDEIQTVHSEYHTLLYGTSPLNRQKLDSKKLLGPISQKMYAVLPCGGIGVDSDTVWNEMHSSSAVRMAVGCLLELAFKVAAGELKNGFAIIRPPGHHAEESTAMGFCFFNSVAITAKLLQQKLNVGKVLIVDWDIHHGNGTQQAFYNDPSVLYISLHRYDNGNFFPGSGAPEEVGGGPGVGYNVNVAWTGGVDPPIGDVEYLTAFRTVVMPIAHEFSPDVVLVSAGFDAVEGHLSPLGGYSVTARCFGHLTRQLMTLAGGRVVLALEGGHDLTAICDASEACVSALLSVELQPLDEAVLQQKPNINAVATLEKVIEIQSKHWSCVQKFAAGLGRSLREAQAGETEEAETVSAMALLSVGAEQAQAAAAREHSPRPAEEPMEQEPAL

[10] = system: PC-12; experiment: Neuroprotective activity in rat PC-12 cells assessed as increase in NGF-mediated neurite outgrowth at 10 uM incubated for 48 hrs by phase contrast microscopic analysis; assay type: functional
[11] = system: PC-12; experiment: Neuroprotective activity against H202-induced oxidative damage in rat PC-12 cells assessed as increase in cell viability at 10 uM; assay type: functional
[12] = target: Histone deacetylase 2 (Homo sapiens, UniProt Q92769); experiment: Inhibition of HDAC2 (unknown origin) using fluorogenic peptide RHKKAc-AMC as substrate by fluorescence-based assay
Sequence of Histone deacetylase 2 (Q92769 whole entry): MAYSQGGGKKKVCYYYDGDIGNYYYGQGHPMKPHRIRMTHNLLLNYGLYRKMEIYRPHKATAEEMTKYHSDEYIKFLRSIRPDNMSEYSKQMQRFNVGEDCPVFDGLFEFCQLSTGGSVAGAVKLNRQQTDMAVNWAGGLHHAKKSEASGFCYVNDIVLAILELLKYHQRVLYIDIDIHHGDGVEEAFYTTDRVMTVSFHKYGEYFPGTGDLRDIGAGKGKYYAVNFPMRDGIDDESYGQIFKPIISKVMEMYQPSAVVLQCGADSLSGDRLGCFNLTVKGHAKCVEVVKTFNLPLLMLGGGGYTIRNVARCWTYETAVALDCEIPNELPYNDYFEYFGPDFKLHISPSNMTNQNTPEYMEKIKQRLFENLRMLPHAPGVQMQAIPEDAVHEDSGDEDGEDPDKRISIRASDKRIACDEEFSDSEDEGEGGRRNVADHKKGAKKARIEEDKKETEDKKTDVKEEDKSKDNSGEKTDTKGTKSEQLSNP

| SMILES | Activity [1] | pIC50 [2] | pIC50 [3] | Ratio IC50 [4] | other results |
| --- | --- | --- | --- | --- | --- |
| Cn1cc(C(=O)N2CCN(Cc3ccc(C(=O)NO)cc3)CC2)c2ccccc21 | 27.5% | 7.26 | 5.66 | 39 |  |
| O=C(NO)c1ccc(CN2CCN(C(=O)c3c[nH]c4cccc(Cc5ccccc5)c34)CC2)cc1 | 31.8% | 7.11 | < 4.30 |  | Activity [5]: Dose-Dependent Effect |
| O=C1CN(Cc2ccc(C(=O)NO)cc2)C(=O)[C@@H](Cc2c[nH]c3ccccc23)N1 | 12.3% |  |  |  |  |
| O=C(NO)c1ccc(CN2CCN(C(=O)c3c[nH]c4cc(F)ccc34)CC2)cc1 | 12.3% | 7.85 | 5.92 | 85 |  |
| CN1C(=O)CN(Cc2ccc(C(=O)NO)cc2)C(=O)C1Cc1ccccc1 (centres undefined) | 12.3% |  |  |  |  |
| O=C(NO)c1ccc(CN2CC(=O)N(Cc3ccccc3)C(Cc3ccccc3)C2=O)cc1 (centres undefined) | 12.3% |  |  |  |  |
| O=C(NO)c1ccc(CN2CCN(C(=O)c3c[nH]c4ccccc34)CC2)cc1 | 12.3% | 7.84 | 5.90 | 87 |  |
| CN1CCc2c(c3ccccc3n2Cc2ccc(C(=O)NO)cc2)C1 |  |  |  |  | Activity [6]: Dose-Dependent Effect |
| C=CCN1C(=O)CN(Cc2ccc(C(=O)NO)cc2)C(=O)C1Cc1ccccc1 (centres undefined) | 12.3% |  |  |  |  |
| O=C(NO)c1ccc(CN2CCN(C(=O)c3cc4ccccc4[nH]3)CC2)cc1 |  | 7.05 |  |  |  |
| Cc1cccc2c(C(=O)N3CCN(Cc4ccc(C(=O)NO)cc4)CC3)c[nH]c12 | 34.7% | 7.87 | 5.86 | 102 | Activity [7]: 39.1%; pIC50 [8]: 5.73; pIC50 [9]: < 4.30; Activity [5]: Dose-Dependent Effect; Activity [10]: 12.3%; Activity [6]: Dose-Dependent Effect; Activity [11]: 78.5%; pIC50 [12]: 5.65 |
| O=C(NO)c1ccc(CN2CCN(C(=O)c3c[nH]c4cc(OCc5ccccc5)ccc34)CC2)cc1 | 37.3% | 7.63 | 5.98 | 45 | Activity [7]: Toxic; Activity [5]: Dose-Dependent Effect |
| O=C(NO)c1ccc(CN2CCN(C(=O)c3c[nH]c4ccc(Cl)cc34)CC2)cc1 | 12.3% | 7.59 | 5.84 | 55 |  |
